Test results reported in ChEMBL document CHEMBL1201862, “PubChem BioAssay data set” (2004).
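Five concentrations, 48 hours, 96-well plates. Abbreviation: GI50, concentration required for 50% inhibition of growth.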 The source made the active and inactive calls. Cut-off read from the data, not from the text of the source: active = GI50 up to about 1.1 µM and inactive = higher.

Legend:
Assay in all cases: growth of human tumour cells (NCI), 48 h
CAKI-1 = tested on: CAKI-1
786-0 = tested on: 786-0
HOP-62 = tested on: HOP-62
CCRF-CEM = tested on: CCRF-CEM
T47D = tested on: T47D
HCT-15 = tested on: HCT-15
NCI/ADR-RES = tested on: NCI/ADR-RES
MDA-MB-435 = tested on: MDA-MB-435
OVCAR-5 = tested on: OVCAR-5
SK-MEL-5 = tested on: SK-MEL-5
Hs-578T = tested on: Hs-578T
MDA-MB-231 = tested on: MDA-MB-231
TK-10 = tested on: TK-10
UACC-257 = tested on: UACC-257
KM12 = tested on: KM12
MDA-N = tested on: MDA-N
SF-295 = tested on: SF-295
SF-268 = tested on: SF-268

Row | Structure (SMILES) | GI50 (CAKI-1) | GI50 (786-0) | GI50 (HOP-62) | GI50 (CCRF-CEM) | GI50 (T47D) | GI50 (HCT-15) [µM] | GI50 (NCI/ADR-RES) | GI50 (MDA-MB-435) | GI50 (OVCAR-5) | GI50 (SK-MEL-5) | GI50 (Hs-578T) | GI50 (MDA-MB-231) | GI50 (TK-10) | GI50 (UACC-257) | GI50 (KM12) | GI50 (MDA-N) | GI50 (SF-295) | GI50 (SF-268)
1 | O=C1CCC2CCC1C2 (stereo not drawn) | > 100 µM (inactive) | > 100 µM (inactive) | > 100 µM (inactive) | > 100 µM (inactive) | > 100 µM (inactive) | > 100 | > 100 µM (inactive) | > 100 µM (inactive) | > 100 µM (inactive) | > 100 µM (inactive) | > 100 µM (inactive) | > 100 µM (inactive) | > 100 µM (inactive) | > 100 µM (inactive) | > 100 µM (inactive) | > 100 µM (inactive) | > 100 µM (inactive) | > 100 µM (inactive)
2 | c1sc(NC2=NCCO2)c2c1CCCC2 | > 100 µM (inactive) | > 100 µM (inactive) | – | > 100 µM (inactive) | 88.1 µM (inactive) | > 100 | > 100 µM (inactive) | > 100 µM (inactive) | > 100 µM (inactive) | > 100 µM (inactive) | > 100 µM (inactive) | > 100 µM (inactive) | > 100 µM (inactive) | > 100 µM (inactive) | > 100 µM (inactive) | > 100 µM (inactive) | > 100 µM (inactive) | –
3 | COc1ccccc1C1SCC(=O)N1c1ccc(-n2c(-c3ccccc3)nc3ccccc3c2=O)cc1 (stereo not drawn) | 82 µM (inactive) | > 100 µM (inactive) | > 100 µM (inactive) | 44.5 µM (inactive) | 12.9 µM (inactive) | 54.2 | 19.3 µM (inactive) | 53.8 µM (inactive) | > 100 µM (inactive) | 37.5 µM (inactive) | 39.4 µM (inactive) | 47.6 µM (inactive) | > 100 µM (inactive) | > 100 µM (inactive) | 29.9 µM (inactive) | > 100 µM (inactive) | 75.5 µM (inactive) | 78.2 µM (inactive)
4 | N#CCCN(CCC#N)c1ccc(/C=C2\N=C(c3ccccc3)N(c3ccc(Cl)cc3)C2=O)cc1 | – | > 100 µM (inactive) | > 100 µM (inactive) | > 100 µM (inactive) | > 100 µM (inactive) | > 100 | > 100 µM (inactive) | 45.5 µM (inactive) | > 100 µM (inactive) | 76.7 µM (inactive) | 20.6 µM (inactive) | > 100 µM (inactive) | > 100 µM (inactive) | > 100 µM (inactive) | 58.7 µM (inactive) | > 100 µM (inactive) | 30.3 µM (inactive) | > 100 µM (inactive)
5 | CCCCCCCCCC/C=C/CC(=O)SCCNC(=O)CCNC(=O)[C@@H](O)C(C)(C)COP(=O)(O)OP(=O)(O)OCC1OC(n2cnc3c(N)ncnc32)C(O)C1OP(=O)(O)O (stereo partly drawn) | > 10 µM (inactive) | > 10 µM (inactive) | > 10 µM (inactive) | > 10 µM (inactive) | > 10 µM (inactive) | > 10 | > 10 µM (inactive) | > 10 µM (inactive) | > 10 µM (inactive) | > 10 µM (inactive) | > 10 µM (inactive) | > 10 µM (inactive) | > 10 µM (inactive) | > 10 µM (inactive) | > 10 µM (inactive) | > 10 µM (inactive) | > 10 µM (inactive) | > 10 µM (inactive)
6 | Cc1cc(=O)nc(Sc2ccc([N+](=O)[O-])cc2[N+](=O)[O-])[nH]1 | 15.1 µM (inactive) | 16.7 µM (inactive) | 24.5 µM (inactive) | 0.822 µM (active) | 17.5 µM (inactive) | 14.2 | 30.4 µM (inactive) | 25.6 µM (inactive) | 17.9 µM (inactive) | 1.75 µM (inactive) | 37.8 µM (inactive) | 23.2 µM (inactive) | 15.8 µM (inactive) | 21.2 µM (inactive) | 22.2 µM (inactive) | 16.7 µM (inactive) | > 50.5 µM (inactive) | 24.4 µM (inactive)
7 | CCOC(=O)C1=C(C)C2C=C(c3cccs3)CC(c3ccc(Cl)cc3)=C2OC1=O (stereo not drawn) | 57.8 µM (inactive) | 20.6 µM (inactive) | 86.1 µM (inactive) | 17.3 µM (inactive) | 3.97 µM (inactive) | 16.8 | 30.5 µM (inactive) | 42.4 µM (inactive) | > 100 µM (inactive) | 27 µM (inactive) | > 100 µM (inactive) | 92.3 µM (inactive) | 31.7 µM (inactive) | 17.7 µM (inactive) | 15.2 µM (inactive) | 37.9 µM (inactive) | 60.4 µM (inactive) | 97.1 µM (inactive)
8 | CC(C)(NC(=O)OCc1ccccc1)C(=O)OC(=O)C(C)(C)NC(=O)OCc1ccccc1 | > 100 µM (inactive) | > 100 µM (inactive) | > 100 µM (inactive) | > 100 µM (inactive) | > 100 µM (inactive) | > 100 | > 100 µM (inactive) | > 100 µM (inactive) | > 100 µM (inactive) | > 100 µM (inactive) | > 100 µM (inactive) | > 100 µM (inactive) | – | – | > 100 µM (inactive) | 23.6 µM (inactive) | > 100 µM (inactive) | 0.653 µM (active)
9 | CCOC(=O)Nc1ccc(C)c(NC(=O)OCC)c1 | > 100 µM (inactive) | > 100 µM (inactive) | > 100 µM (inactive) | > 100 µM (inactive) | > 100 µM (inactive) | > 100 | > 100 µM (inactive) | > 100 µM (inactive) | > 100 µM (inactive) | > 100 µM (inactive) | > 100 µM (inactive) | > 100 µM (inactive) | > 100 µM (inactive) | > 100 µM (inactive) | > 100 µM (inactive) | > 100 µM (inactive) | > 100 µM (inactive) | > 100 µM (inactive)
10 | COC(=O)C1=C(C(=O)OC)SC2(S1)C(C(=O)OC)=C(C(=O)OC)Sc1c2ssc1=O | 1.43 µM (inactive) | 0.456 µM (active) | 1.83 µM (inactive) | 0.076 µM (active) | 1.12 µM (active) | 0.369 | 1 µM (active) | 1.57 µM (inactive) | 2.11 µM (inactive) | 1.21 µM (inactive) | 5.18 µM (inactive) | 1.67 µM (inactive) | 1.58 µM (inactive) | 1.51 µM (inactive) | 4.78 µM (inactive) | 1.66 µM (inactive) | 11.4 µM (inactive) | 2.52 µM (inactive)
11 | c1ccc2nn(C3CCCO3)nc2c1 (stereo not drawn) | > 100 µM (inactive) | > 100 µM (inactive) | > 100 µM (inactive) | > 100 µM (inactive) | > 100 µM (inactive) | > 100 | > 100 µM (inactive) | > 100 µM (inactive) | > 100 µM (inactive) | > 100 µM (inactive) | > 100 µM (inactive) | > 100 µM (inactive) | > 100 µM (inactive) | > 100 µM (inactive) | – | > 100 µM (inactive) | > 100 µM (inactive) | > 100 µM (inactive)
12 | CCOC(=O)Cc1cc(=O)[nH]c(-n2[nH]c(C)c(CCO)c2=O)n1 | > 100 µM (inactive) | > 100 µM (inactive) | > 100 µM (inactive) | > 100 µM (inactive) | > 100 µM (inactive) | > 100 | > 100 µM (inactive) | > 100 µM (inactive) | > 100 µM (inactive) | > 100 µM (inactive) | > 100 µM (inactive) | > 100 µM (inactive) | > 100 µM (inactive) | > 100 µM (inactive) | > 100 µM (inactive) | > 100 µM (inactive) | > 100 µM (inactive) | > 100 µM (inactive)
13 | CCC1c2[nH]c3ccccc3c2C[C@H]2C(=O)NC(CCC(=O)OC(C)(C)C)C(=O)N12 (stereo partly drawn) | > 100 µM (inactive) | 56.6 µM (inactive) | 78.5 µM (inactive) | – | 40.6 µM (inactive) | 52 | 62.5 µM (inactive) | 49.5 µM (inactive) | 62.1 µM (inactive) | 39.4 µM (inactive) | 32.7 µM (inactive) | 66.4 µM (inactive) | 42.6 µM (inactive) | 40.2 µM (inactive) | 35.1 µM (inactive) | 51.5 µM (inactive) | 42.3 µM (inactive) | 37.4 µM (inactive)
14 | C=CCN1CCC(c2cc(C(=O)OCC)[nH]c2-c2cc(C)no2)C1=O (stereo not drawn) | > 100 µM (inactive) | > 100 µM (inactive) | > 100 µM (inactive) | > 100 µM (inactive) | > 100 µM (inactive) | > 100 | > 100 µM (inactive) | > 100 µM (inactive) | > 100 µM (inactive) | > 100 µM (inactive) | > 100 µM (inactive) | > 100 µM (inactive) | – | > 100 µM (inactive) | > 100 µM (inactive) | > 100 µM (inactive) | > 100 µM (inactive) | > 100 µM (inactive)
15 | CC(c1ccccc1)n1c2ccccc2c2c(N)ncnc21 (stereo not drawn) | 16.1 µM (inactive) | 14.9 µM (inactive) | 17.5 µM (inactive) | 27.8 µM (inactive) | 15.5 µM (inactive) | 23.4 | 20.4 µM (inactive) | 16.9 µM (inactive) | 18.2 µM (inactive) | 19.5 µM (inactive) | 18 µM (inactive) | 19.1 µM (inactive) | 17.1 µM (inactive) | 17.2 µM (inactive) | – | 22.6 µM (inactive) | 17 µM (inactive) | 21.1 µM (inactive)
16 | CN1C(=O)C(CCO)(C(C)(C)C)c2ccccc21 (stereo not drawn) | > 100 µM (inactive) | > 100 µM (inactive) | > 100 µM (inactive) | > 100 µM (inactive) | > 100 µM (inactive) | > 100 | > 100 µM (inactive) | > 100 µM (inactive) | > 100 µM (inactive) | > 100 µM (inactive) | > 100 µM (inactive) | > 100 µM (inactive) | – | > 100 µM (inactive) | > 100 µM (inactive) | > 100 µM (inactive) | > 100 µM (inactive) | > 100 µM (inactive)
